Assay results as given in patent publication US6610655B2, “Pentapeptide with specific conformation, its production and use” (Takeda Chemical Industries, Inc., priority 1994, dated 2003).
Where a SMILES comes first, the peptide text is derived from it. [ ]: non-standard residue; d: D form. The star is where a group is joined. Bn = c1ccc(C*)cc1

molecular target: T1, NK2 receptor (Bos taurus, UniProt P05363); experiment: Binding inhibiting activity on NK2 receptor (125I-NKA, membrane fraction of bovine third stomach); details: 125I-neurokinin A, membrane fraction from inner wall of bovine third stomach, 25° C., 3 hours
T1 construct: membrane fraction containing the receptor was prepared from the inner wall of the bovine third stomach; tissue Kyoto Chuo Chikusan Fukuseibutsu Oroshi Kyokai; host or cells: inner wall of the bovine third stomach (membrane fraction)
T1 sequence (P05363 1-384): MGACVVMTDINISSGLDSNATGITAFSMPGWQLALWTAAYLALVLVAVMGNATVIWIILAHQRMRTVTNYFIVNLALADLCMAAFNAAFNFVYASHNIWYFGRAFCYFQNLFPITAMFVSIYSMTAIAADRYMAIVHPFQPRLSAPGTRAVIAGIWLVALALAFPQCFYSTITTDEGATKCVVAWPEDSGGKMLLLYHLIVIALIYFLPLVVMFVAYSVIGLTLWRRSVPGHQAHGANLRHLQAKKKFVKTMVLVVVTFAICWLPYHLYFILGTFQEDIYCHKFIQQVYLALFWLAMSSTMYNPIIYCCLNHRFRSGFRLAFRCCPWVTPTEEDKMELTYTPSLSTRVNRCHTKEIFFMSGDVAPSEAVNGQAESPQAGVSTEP
Description: The method of Paul L. M. Van Giersbergen et al. [Proc. Natl. Acad. Sci. U.S.A., 88, 1661 (1991) was modified for this assay. The membrane fraction containing the receptor was prepared from the inner wall of the bovine third stomach (purchased from Kyoto Chuo Chikusan Fukuseibutsu Oroshi Kyokai).
The inner wall of the bovine third stomach stored at −80° C. was cut to 1 cm×1 cm or less, and disrupted in 3 liters/kg of 50 mM Tris-HCl buffer (pH 7.4) supplemented with 120 mM sodium chloride, 5 mM potassium chloride, 0.02% BSA and 5% sucrose, using a polytron homogenizer (Kinematika, Germany). Then, the disrupted product was centrifuged at 1,000×g for 10 minutes. The supernatant was further centrifuged at 45,000×g for 20 minutes. The precipitate was suspended in 200 ml of 50 mM Tris-HCl buffer (pH 7.4) supplemented with 300 mM potassium chloride, 10 mM ethylenediaminetetraacetic acid, 0.1 mM […] and 0.02% BSA, and gently stirred under ice cooling for 60 minutes. The suspension was centrifuged at 45,000×g for 20 minutes. The precipitate was washed with 200 ml of 50 mM Tris-HCl buffer (pH 7.4), and stored in the frozen state at −40° C. as a receptor sample.
This sample was suspended in a reaction buffer solution [50 mM Tris-HCl buffer (pH 7.4), 0.02% bovine serum albumin and 4 mM manganese chloride] so as to give a protein concentration of 0.7 mg/ml, and 100 μl thereof was used for reaction. A test sample and ^125I-NKA (0.61 KBq, ^125I-neurokinin A, 81.4 TBq/mmol, Du Pont/NEN Research Products, U.S.A.) were also added, and reacted in 0.2 ml of the reaction buffer solution at 25° C. for 3 hours. The reaction mixture was rapidly filtered through a glass filter (GF/B, Whatman, U.S.A.) using a cell harvester (Type 290PHD, Cambridge Technology Inc., U.S.A.) to terminate the reaction, and washed 3 times with 250 μl of 50 mM Tris-HCl buffer (pH 7.4) supplemented with 0.02% bovine serum albumin. The radioactivity left on the filter was measured with a gamma-ray counter. […]

Row | Structure (SMILES) | IC50
1 | CC(C)C[C@@H]1NC(=O)[C@@H](CC(C)C)NC(=O)[C@H](COCc2ccccc2)NC(=O)[C@@H](CCC(=O)O)NC(=O)[C@@H](Cc2c[nH]c3ccccc23)NC1=O [Cyclo(-D-Glu-Ser(Bzl)-D-Leu-Leu-D-Trp-)] (cyclo([dE]S(Bn)[dL]L[dW])) | 580 nM
2 | CC(C)C[C@@H]1NC(=O)[C@@H](CC(C)C)NC(=O)[C@H](Cc2c[nH]c3ccccc23)NC(=O)[C@@H](CC(=O)O)NC(=O)[C@@H](Cc2c[nH]c3ccccc23)NC1=O [Cyclo(-D-Asp-Trp-D-Leu-Leu-D-Trp-)] (cyclo([dD]W[dL]L[dW])) | 27 nM
3 | CC(C)C[C@@H]1NC(=O)[C@@H](CC(C)C)NC(=O)[C@H]([C@@H](C)OCc2ccccc2)NC(=O)[C@@H](CCC(=O)O)NC(=O)[C@@H](Cc2c[nH]c3ccccc23)NC1=O [Cyclo(-D-Glu-Thr(Bzl)-D-Leu-Leu-D-Trp-)] (cyclo([dE]T(Bn)[dL]L[dW])) | 1500 nM
